Experimental data reported in US20140230091A1, “MODIFIED PLANTS WITH INCREASED OIL CONTENT” (BROOKHAVEN SCIENCE ASSOCIATES, LLC, priority 2011, published 2014).
One block for each molecule: values may come before it.

Tests used:
ACCase = ACCase enzyme assay on crude cell extracts; assay type: biochemical, Brassica napus
Method: All chemicals were obtained from Sigma and radioisotopes from American Radiolabeled Chemicals. ACCase activity was measured as the acetyl-CoA dependent incorporation of ^14C—NaHC03 into acid and stable products. Crude cell extracts were prepared by grinding fresh cells in 3 volumes (w/v) of 50 mM Tris-Cl, pH 7.5, 100 mM KCl, 5 mM MgCl2, 1 mM DTT, 0.1% TritonX-100, 10% glycerol, and plant protease inhibitor cocktail (Sigma). Homogenate was gently mixed on ice for 10 min and then centrifuged for 5 min at 3000 g. Desalting of extracts was done with PD-10 columns (GE Life Sciences). […] Reactions were initiated by the addition of 5 μlL cell extract and were stopped by the addition of 15 μL 12 N HCL. The contents were dried completely at 55° C. and the solids were resuspended in 30 μL water and counted by liquid scintillation spectroscopy. Minus acetyl-CoA controls were always included. Assays went for 30 min, except when measuring the effects of metabolites (10 min). Metabolites were added to the reaction immediately after cell extract to preserve labile thioester bonds. FFA stock solutions were made in ethanol and acyl-CoAs were suspended in water.

[1] = tested on: fatty acid synthesis in B. napus cells; assay: 14C-acetate / 14C-malonate labeling of lipids (feedback inhibition of fatty acid synthesis); assay type: cell-based, Brassica napus; settings: for Relative 14C-acetate incorporation (% control): relative to a control sample without any Tweens, mean of three repeats ± SD
Method: All radioisotopes were obtained from American Radiolabeled Chemicals (St. Louis, Mo. USA). Labeling was conducted on cells 5 days after subculturing with a culture density of ˜20 mg FW mL^−1 and that had medium refreshed 16 h prior. For labeling, three 1 mL aliquots of cells were carefully removed from each flask and were labeled with either 0.2 μCi of 1,2-^14C-acetate (50-60 mCi mmol^−1) or 2-^14C-malonate (40-60 mCi mmol^−1) for 15 minutes at 25° C. with occasional shaking. Haloxyfop (Sigma) was dissolved in DMSO and added 30 min prior to labeling. Lipids were extracted and separated by TLC as described above. Radioactivity was detected by phosphorimaging and was quantified using ImageQuant software (GE Healthcare, Piscataway, N.J., USA). Incorporation of label into individual fatty acids was determined by making FAMEs as described above, separating the methyl esters by TLC as described in (Koo, Fulda, Browse and Ohlrogge 2005, Plant J, 44, 620-632) and measuring radioactivity by phosphorimaging.
Feedback inhibition of fatty acid synthesis was measured by the addition of a ^14C-acetate tracer. […] Sterol synthesis is dependent on acetyl-CoA and ATP, both of which are required for fatty acid synthesis. Therefore, if fatty acid synthesis is inhibited due to substrate limitation; so should be sterol biosynthesis. ^14C-acetate incorporation into sterols was unaffected by Tween-80 feeding, while incorporation into free fatty acids mirrored that of total lipids (FIG. 5), showing that the effect is restricted to fatty acid synthesis. […] Three hour time points were used for the remainder of this study to separate the period of maximum feedback inhibition from any lipid homeostatic mechanisms arising from the gross fatty acid compositional changes caused by long term Tween-80 feeding.
Plants contain plastidic and cytosolic ACCase and F AS enzyme systems, both of which are capable of incorporating ^14C-acetate into fatty acids. Comparing the distribution of label in individual fatty acid species can therefore provide information on the relative contribution of these pathways. […] The degree to which ^14C-acetate incorporation is inhibited by haloxyfop is proportional to cytosolic elongation activity, whereas haloxyfop-resistant incorporation is from the de nova pathway inside the plastid.
To separate these possibilities, we exploited the fact that exogenous malonate can be converted to malonyl-CoA and used by FAS, bypassing the ACCase reaction (Kannangara et al. 1973, Plant Physiol, 52, 156-161). If ACCase is the only point of inhibition then the rate of ^14C-malonate labeling of de novo fatty acids should be the same in cultures with or without Tween-80. […] Therefore ACCase, and not F AS, is inhibited by Tween-80 feeding. When combined, the data from FIG. 6 unambiguously identify plastidic ACCase as the target of Tween-80 induced feedback inhibition.

B. napus cells [2] = assay: Quantification of fatty acid uptake from 13C-oleoyl-Tween by B. napus cells; assay type: cell-based, Brassica napus; settings: 10 mM 13C-oleoyl-Tween
Method: Lipids were extracted from up to 100 mg fresh weight of frozen cells by homogenizing twice in 500 μL of methanol:chloroform:formic acid (20:10:1 v/v) using glass beads. The combined organic solvent was extracted with 500 μL of 1 M KCl, 0.2 M H3PO4 and the organic phase was recovered, dried under N2, and resuspended in hexane. Lipid classes were separated by TLC using silica gel G TLC Uniplates (Analtech, Newark, Del., USA) with hexane:diethylether:acetic acid (80:20:1, v/v) for neutral lipids or with acetone:toluene:water (91:30:7 v/v) with 0.15 M ammonium sulfate impregnated plates for polar lipids. Loading was equivalent to 10 or 20 mg fresh weight. Lipids were visualized with iodine vapor.
Fatty acid quantification was done by analysis of fatty acid methyl esters (FAMEs). […] FAMEs resuspended in hexane were analyzed with an HP6890 gas chromatograph-flame ionization detector (Agilent Technologies) or an HP5890 gas chromatograph-mass spectrometer (Hewlett-Packard) fitted with 60 m×250 μm SP-2340 capillary columns (Supelco). […]
1-^13C-oleic acid was obtained from Cambridge Isotope Laboratories (Andover, Mass., USA). […] Lipid extraction and GC/MS was done as described above. ^13C-fatty acids were detected and quantified and corrected for natural isotope abundance as previously described (Schwender et al. 2003, J Biol Chem, 278, 29442-29453). […]

B. napus cells [3] = assay: Quantification of free fatty acid, acyl-ACP and acyl-CoA pools in cells; assay type: cell-based, Brassica napus; settings: cells fed 13C-oleoyl-Tween, at 3 hours
Method: Free fatty acids were extracted from tissue by quenching ˜300 mg of frozen cells in 2 mL boiling isopropanol for 5 min. Once cooled, 2 mL of 0.9% NaCl was added and lipids were extracted twice with 4 mL of hexane. Neutral lipids were separated by TLC and free fatty acids were scraped, made into FAMEs, and analyzed by GC-FID or GC-MS as described above. Acyl-CoAs were extracted from ˜15 mg FW of cells and quantified as previously described (Larson and Graham 2001, Plant J, 25, 115-125). Acyl-ACPs were extracted and quantified as previously described (Kopka, Ohlrogge and Jaworski 1995, Anal Biochem, 224, 51-60) with the following modifications: 1) Internal standards used were 11:0-CoA (Sigma) and 17:0—ACP made from Spinach ACP as previously described (Broadwater and Fox 1999, Protein Expr Purif, 15, 314-326). 2) Fully dissolving TCA precipitated proteins required three extractions with MOPS buffer rather than just one.
1986 Plant Physiol, 82, 771-779). Free fatty acids can be activated by esterification to CoA or ACP before being deposited in cellular lipids. Steady state pools acyl-ACP and acyl-CoA as well as free fatty acids (FFA) were measured in cells fed Tween-80. After three hours of feeding, 18:1 FFA appeared where there was none detected in untreated cells (FIG. 9a). […] In a separate experiment designed to distinguish the incorporation of fatty acids from Tween from secondary effects of feedback inhibition, FFA and acylACPs were analyzed in cells fed ^13C-oleoyl-Tween. […] First, the in vivo concentrations of these intermediates were calculated based on the range of values in FIG. 9 and the water content of the cells. […] However, considering that acyl-ACPs are restricted to the plastid, the volume of which in developing embryos was determined to be 10% of the cell (Mansfield and Briarty 1992, Can J Bot, 70, 151-164), the estimate increased to 5-10 μM. […] Thioesterase activity was measured using the same conditions as the ACCase assay. […]

[4] = molecular target: Brassica napus plastidic (heteromeric) acetyl-CoA carboxylase, endogenous enzyme in crude cell extracts (Brassica napus); assay: cell-based or functional assay

Molecule: O=C(O)CCC(=O)C(=O)O [2-oxoglutarate]
ACCase activity, difference between control and Tween-80 fed cultures (ACCase; in the presence of 5 mM 2-oxoglutarate): no differences

Molecule: Tween-60
Relative 14C-acetate incorporation (% control) [1]: 85.9 ± 3.4 % control

Molecule: Tween-18:1
inhibition of acetate labeling of lipids ([1]; in words): maximum inhibition
Relative 14C-acetate incorporation (% control) [1]: 51.5 ± 6.7 % control

Molecule: CCCCCCCC/C=C\CCCCCCCC(=O)SCCNC(=O)CCNC(=O)[C@H](O)C(C)(C)COP(=O)(O)OP(=O)(O)OC[C@H]1O[C@@H](n2cnc3c(N)ncnc32)[C@H](O)[C@@H]1OP(=O)(O)O [18:1-CoA, 18:1-Coenzyme A]
extent of ACCase inhibition (ACCase; crude extract, physiological range of concentrations): partial

Molecule: Tween-40
Relative 14C-acetate incorporation (% control) [1]: 84.4 ± 3.4 % control

Molecule: CC(Oc1ccc(Oc2ncc(C(F)(F)F)cc2Cl)cc1)C(=O)O (centres unmarked) [haloxyfop]
reduction in ACCase activity (ACCase; crude extracts treated with haloxyfop): about 15%

Molecule: O=C(O)CC(=O)O [malonate]
inhibition of 14C-acetate incorporation on malonate feeding ([1]; malonate feeding): does not cause inhibition

Molecule: Tween-85
Relative 14C-acetate incorporation (% control) [1]: 48.8 ± 5.9 % control

Molecule: 1-^13C-oleoyl-Tween
13C-18:1 as proportion of the total 18:1 (B. napus cells [2]; after three hours): about 10%
proportion of 13C-label in 18-carbon fatty acids (B. napus cells [2]; by 48 hours): about 70%
percent of 18:1-ACP containing 13C-oleic acid (B. napus cells [3]): 46.2±4.2%
percent of 18:1 FFA containing 13C-oleic acid (B. napus cells [3]): 99.1±2.2%

ACCase activity in crude B. napus cell extracts (acetyl-CoA dependent incorporation of 14C-NaHCO3, 10 min assay) [4]: > 3 µM
Molecule: B. napus 18:1-ACP (18:1-Acyl Carrier Protein made from BnACP, GenBank:X13127.1, with 6x his-tag)
